From patent US20170280722A1, “COMPOSITIONS AND METHODS FOR CONTROL OF SAND FLIES AND OTHER BLOOD SUCKING INSECTS” (GENESIS LABORATORIES, INC., priority 2010, published 2017)

Tests used:
adult P. argentipes = assay: Adult sand fly bioassay, bloodfeeding on fipronil treated B. bengalensis; type: in vivo; details: for Time after 1 hour exposure to 100% mortality of adult P. argentipes: bloodfeeding 20 days after treatment; for Adult sand fly mortality: across treatment groups
Description: (§1) The B. bengalensis fipronil study was conducted in two portions. In the first of the two segments, three randomly selected B. bengalensis were offered a fipronil (250 ppm) treated diet at 25 g daily. One rat served as control and was fed an untreated diet. In the second portion of the study, the remaining animals were randomly divided into two groups of two. Two individuals in the first group were offered 25 g of 100 ppm fipronil-treated feed each and two rats in the second group were each offered 25 g of 50 ppm fipronil-treated diet. One rat served as control and was fed an untreated diet.
(§2) Test animals were provided treated feed for two consecutive days. Diets were prepared by utilizing locally available poultry feed treated with technical grade fipronil to predetermined concentrations. Consumption was calculated daily, feed refilled to a predetermined level of 25 g, and feces cleared. At the end of the second day, treated feed was cleared, final consumption weighed, and feed replaced with untreated locally available poultry feed. Feces were collected, noted as day-1 post-treatment and properly stored for use in assays. Observation of test animals continued for twenty days post-treatment, with additional collection of feces for testing conducted 5, 10, and 20 days post-treatment. On days when fecal collection occurred, all newspaper/bedding was replaced at 0800 hours and feces collected at the end of the day for preservation. Collected feces were dried overnight at approximately 40° C., ground into a fine powder with a pestle and mortar and frozen at −20° C. until larval bioassays were initiated.
Adult sand fly bioassays were conducted 1, 5, 10 and 20 days post feed-through treatment of B. bengalensis. B. bengalensis were anesthetized with 15 units of ketamine (KetaJet 50, SterFil Laboratories Pvt. Ltd., Ankleshwar, India) via intramuscular injection. The belly of each rat was shaved using an electric razor and a mesh covered plastic capsule (20 mm diameter, 25 mm height) containing 20 adult female and 5 adult male P. argentipes was affixed to the shaved area with medical tape. The capsules had about 10 small holes burned into the top with a heated 24 gauge needle. Capsules remained in place for one hour, covered with a light cloth to maintain warmth and reduce light. At the end of one hour, the capsules were removed and observations for mortality conducted immediately, at 12 hours post-feeding, and every 24 hours thereafter for up to 5 days post-exposure. Partially fed sand flies were included in analyses as “bloodfed” specimens. Unfed sand flies were removed, and bloodfed sand flies were observed collectively by treatment group.

[1] = tested on: P. argentipes first instar larvae; assay: Larval bioassay with feces of fipronil treated B. bengalensis; type: in vivo; details: for Mean ± SEM survival (days) of P. argentipes larvae during exposure to treated feces D-1 / Mean ± SEM survival (days) of P. argentipes larvae during exposure to treated feces D-5 / Mean ± SEM survival (days) of P. argentipes larvae during exposure to treated feces D-10 / Mean ± SEM survival (days) of P. argentipes larvae during exposure to treated feces D-20: B. bengalensis; for Mean ± SEM survival (days) of P. argentipes larvae during exposure to treated feces D-1: feces 1 day post-treatment; for Mean ± SEM survival (days) of P. argentipes larvae during exposure to treated feces D-5: feces 5 days post-treatment; for Mean ± SEM survival (days) of P. argentipes larvae during exposure to treated feces D-10: feces 10 days post-treatment; for Mean ± SEM survival (days) of P. argentipes larvae during exposure to treated feces D-20: feces 20 days post-treatment
Description: as §1, §2
Larval bioassay jars were prepared using 48 mm, 100 g round Dibbi jars (Pearlpet, Pearl Polymers LTD., New Delhi, India). Jars were prepared by burning three small holes into the bottom of the container with a soldering iron. A thin layer (approximately 5 mm) of plaster of Paris was cast on the bottom and wetted to ensure humidity and softening of the test diet. To simplify mortality counts, the plaster was quartered, and each quadrant numbered one through four, using an ultra fine black marker. The lids of the jars were punctured with 15-20 small holes using a heated 24-gauge hypodermic needle.
Each bioassay jar was loaded with ten one to two day old first instar P. argentipes larvae. Approximately 5 mg treated feces were sprinkled evenly over the plaster. Larval bioassay samples were maintained in a controlled environment at approximately 24° C. with relative humidity maintained at approximately 80% through daily moistening of paper towels underneath the jars. Any observed mold or mites were removed during each day's observation. Each bioassay group included one control jar with larvae provided standard larval food consisting of rabbit feed, rabbit pellets, and dried chicken blood which were mixed, dried, composted, and crushed. Mortality counts of larvae were conducted every 24 hours post-exposure until 100% mortality or pupation was observed. Larvae were considered dead if no physical response was observed within 15 seconds of light stimulation with a blunt probe.

## N#Cc1nn(-c2c(Cl)cc(C(F)(F)F)cc2Cl)c(N)c1[S+]([O-])C(F)(F)F (centres unmarked) [fipronil]
Adult P. argentipes; bloodfed on rodents treated as much as 20 days previously, all treatment levels
  Mortality of bloodfeeding adult P. argentipes: 100%
Adult P. argentipes; 50 ppm
  Time after 1 hour exposure to 100% mortality of adult P. argentipes: 5 days
Adult P. argentipes; 100 ppm
  Time after 1 hour exposure to 100% mortality of adult P. argentipes: 3 days
Adult P. argentipes; 250 ppm
  Time after 1 hour exposure to 100% mortality of adult P. argentipes: 4 days
Adult P. argentipes; bloodfeeding on rodents 1 day after treatment
  Adult sand fly mortality: 100%
Adult P. argentipes; bloodfeeding on rodents 5 days after treatment
  Adult sand fly mortality: 100%
Adult P. argentipes; day 1, all treatment groups (50 ppm, 100 ppm, and 250 ppm)
  Time to death of adult sand flies: dead by the end of the one hour exposure period
Adult P. argentipes; day 5, 50 ppm treatment group
  Time to 100% mortality of adult sand flies: 24 h
Adult P. argentipes; day 5, 250 and 100 ppm treatment groups
  Time to death of adult sand flies: dead by the end of the one hour exposure period
[1]; 50 ppm
  Mean ± SEM survival (days) of P. argentipes larvae during exposure to treated feces D-1: 2.66 ± 0.18 days
  Mean ± SEM survival (days) of P. argentipes larvae during exposure to treated feces D-5: 4.03 ± 0.27 days
  Mean ± SEM survival (days) of P. argentipes larvae during exposure to treated feces D-10: 4.06 ± 0.29 days
  Mean ± SEM survival (days) of P. argentipes larvae during exposure to treated feces D-20: 6.36 ± 0.36 days
[1]; 100 ppm
  Mean ± SEM survival (days) of P. argentipes larvae during exposure to treated feces D-1: 2.23 ± 0.11 days
  Mean ± SEM survival (days) of P. argentipes larvae during exposure to treated feces D-5: 3.73 ± 0.23 days
  Mean ± SEM survival (days) of P. argentipes larvae during exposure to treated feces D-10: 3.70 ± 0.16 days
  Mean ± SEM survival (days) of P. argentipes larvae during exposure to treated feces D-20: 3.82 ± 0.21 days
[1]; 250 ppm
  Mean ± SEM survival (days) of P. argentipes larvae during exposure to treated feces D-1: 3.37 ± 0.20 days
  Mean ± SEM survival (days) of P. argentipes larvae during exposure to treated feces D-5: 5.13 ± 0.27 days
  Mean ± SEM survival (days) of P. argentipes larvae during exposure to treated feces D-10: 2.28 ± 0.10 days
  Mean ± SEM survival (days) of P. argentipes larvae during exposure to treated feces D-20: 2.20 ± 0.10 days
[1]; feces 5 days after treatment, 50 ppm
  Days of exposure to achieve 100% mortality: 7 days
[1]; feces 5 days after treatment, 50 ppm, after 2 days of exposure
  Larval mortality: 23%
[1]; feces 5 days after treatment, 100 ppm
  Days of exposure to achieve 100% mortality: 7 days
[1]; feces 5 days after treatment, 100 ppm, after 2 days of exposure
  Larval mortality: 22%
[1]; feces 5 days after treatment, 250 ppm
  Days of exposure to achieve 100% mortality: 8 days
[1]; feces 5 days after treatment, 250 ppm, after 3 days of exposure
  Larval mortality: 23%
[1]; feces 10 days after treatment, 50 ppm
  Days of exposure to achieve 100% mortality: 9 days
[1]; feces 10 days after treatment, 50 ppm, after 2 days of exposure
  Larval mortality: 16%
[1]; feces 10 days after treatment, 50 ppm, after 6 days of exposure
  Larval mortality: 95%
[1]; feces 10 days after treatment, 100 ppm
  Days of exposure to achieve 100% mortality: 5 days
[1]; feces 10 days after treatment, 100 ppm, after 2 days of exposure
  Larval mortality: 6%
[1]; feces 10 days after treatment, 250 ppm
  Days of exposure to achieve 100% mortality: 4 days
[1]; feces 10 days after treatment, 250 ppm, after 2 days of exposure
  Larval mortality: 78%
[1]; feces 20 days after treatment, 50 ppm
  Days of exposure to achieve 100% mortality: 10 days
[1]; feces 20 days after treatment, 100 ppm
  Days of exposure to achieve 100% mortality: 6 days
[1]; feces 20 days after treatment, 100 ppm (so in the source), after 3 days of exposure
  Larval mortality: 7%
[1]; feces 20 days after treatment, 100 ppm, after 2 days of exposure
  Larval mortality: 14%
[1]; feces 20 days after treatment, 250 ppm
  Days of exposure to achieve 100% mortality: 4 days
[1]; feces 20 days after treatment, 250 ppm, after 2 days of exposure
  Larval mortality: 85%
[1]; feces collected 20 days after the rodents were treated
  Knockdown of larvae: Quick knockdown
[1]; feces day 1 post-treatment, 50 ppm
  Days of exposure to achieve 100% mortality: 5 days
[1]; feces day 1 post-treatment, 50 ppm, after 1 day of exposure
  Larval mortality: 4%
[1]; feces day 1 post-treatment, 100 ppm
  Days of exposure to achieve 100% mortality: 4 days
[1]; feces day 1 post-treatment, 100 ppm, after 1 day of exposure
  Larval mortality: 8%
[1]; feces day 1 post-treatment, 250 ppm
  Days of exposure to achieve 100% mortality: 6 days
[1]; feces day 1 post-treatment, 250 ppm, after 2 days of exposure
  Larval mortality: 18%
